According to patent publication US20230180758A1, “SUBSTITUTED PYRROLINE-2-ONES AND THEIR USE AS HERBICIDES” (Bayer Aktiengesellschaft, priority 2020, published 2023):

Tests used:
Assay type in all cases: in vivo
Lolium rigidum [1] = test: Pre-emergence herbicidal effect against LOLRI; conditions: scored visually after 3 weeks
Excerpt: (§1) 2. Pre-Emergence Herbicidal Effect and Crop Plant Compatibility
(§2) Seeds of monocotyledonous and dicotyledonous weed plants and crop plants are laid out in sandy loam soil in wood-fibre pots and covered with soil. The compounds of the invention, formulated in the form of wettable powders (WP) or as emulsion concentrates (EC), are then applied to the surface of the covering soil as aqueous suspension or emulsion at a water application rate equating to 600 to 800 L/ha with addition of 0.2% wetting agent.
(§3) After the treatment, the pots are placed in a greenhouse and kept under good growth conditions for the trial plants. The damage to the test plants is scored visually after a test period of 3 weeks by comparison with untreated controls (herbicidal activity in percent (%): 100% activity=the plants have died, 0% activity=like control plants).

Echinochloa crus-galli [2] = test: Pre-emergence herbicidal effect against ECHCG; conditions: 320 g/ha, scored visually after 3 weeks
Excerpt: as §1, §2, §3

Echinochloa crus-galli [3] = test: Post-emergence herbicidal effect against ECHCG; conditions: visual assessment after about 3 weeks
Protocol: (§4) 1. Post-Emergence Herbicidal Effect and Crop Plant Compatibility
(§5) Seeds of monocotyledonous and dicotyledonous weed and crop plants are laid out in sandy loam soil in wood-fibre pots, covered with soil and cultivated in a greenhouse under good growth conditions. 2 to 3 weeks after sowing, the test plants are treated at the one-leaf stage. The compounds of the invention, formulated in the form of wettable powders (WP) or as emulsion concentrates (EC), are then sprayed onto the green parts of the plants as aqueous suspension or emulsion at a water application rate equating to 600 to 800 l/ha with addition of 0.2% wetting agent. After the test plants have been left to stand in the greenhouse under optimal growth conditions for about 3 weeks, the action of the preparations is assessed visually in comparison to untreated controls (herbicidal action in percent (%): 100% activity=the plants have died, 0% activity=like control plants).

Avena fatua [4] = test: Pre-emergence herbicidal effect against AVEFA; conditions: 320 g/ha, scored visually after 3 weeks
Excerpt: as §1, §2, §3

Setaria viridis = test: Post-emergence herbicidal effect against SETVI; conditions: visual assessment after about 3 weeks
Protocol: as §4, §5

Lolium rigidum [5] = test: Post-emergence herbicidal effect against LOLRI; conditions: 80 g/ha, visual assessment after about 3 weeks
Protocol: as §4, §5

Alopecurus myosuroides [6] = test: Pre-emergence herbicidal effect against ALOMY; conditions: 320 g/ha, scored visually after 3 weeks
Excerpt: as §1, §2, §3

Alopecurus myosuroides [7] = test: Post-emergence herbicidal effect against ALOMY; conditions: visual assessment after about 3 weeks, 100% = plants have died
Protocol: as §4, §5

Digitaria sanguinalis = test: Post-emergence herbicidal effect against DIGSA; conditions: visual assessment after about 3 weeks, 100% = plants have died
Protocol: as §4, §5

Avena fatua [8] = test: Post-emergence herbicidal effect against AVEFA; conditions: 80 g/ha, visual assessment after about 3 weeks, 100% = plants have died
Protocol: as §4, §5

Hordeum murinum = test: Post-emergence herbicidal effect against HORMU; conditions: 80 g/ha, visual assessment after about 3 weeks
Protocol: as §4, §5

COc1cc(C)cc(C)c1C1=C([O-])C2(COC3(CCOCC3)OC2)N(C)C1=O.[Na+] [Example 6-1]
Pre-emergence action against LOLRI (Lolium rigidum [1]; 80 g/ha): 100%
Pre-emergence action against LOLRI (Lolium rigidum [1]; 320 g/ha): 100%
Pre-emergence action against ECHCG (Echinochloa crus-galli [2]): 100%
Post-emergence action against ECHCG (Echinochloa crus-galli [3]; 20 g/ha): 90%
Post-emergence action against ECHCG (Echinochloa crus-galli [3]; 80 g/ha): 100%
Pre-emergence action against AVEFA (Avena fatua [4]): 90%
Post-emergence action against SETVI (Setaria viridis; 20 g/ha): 90%
Post-emergence action against SETVI (Setaria viridis; 80 g/ha): 90%
Post-emergence action against LOLRI (Lolium rigidum [5]): 90%
Pre-emergence action against ALOMY (Alopecurus myosuroides [6]): 100%
Post-emergence action against ALOMY (Alopecurus myosuroides [7]; 80 g/ha): 90%

CCOC(=O)OC1=C(c2c(C)cc(Cl)cc2OC)C(=O)NC12COC1(CCOCC1)OC2 [Example 4-4, 3-(4-chloro-2-methoxy-6-methylphenyl)-2-oxo-7,11,14-trioxa-1-azadispiro[4.2.5^8.2^5]pentadec-3-en-4-yl ethyl carbonate]
Post-emergence action against DIGSA (Digitaria sanguinalis; 20 g/ha): 90%
Post-emergence action against DIGSA (Digitaria sanguinalis; 80 g/ha): 90%
Post-emergence action against AVEFA (Avena fatua [8]): 80%
Post-emergence action against ECHCG (Echinochloa crus-galli [3]; 80 g/ha): 100%
Post-emergence action against SETVI (Setaria viridis; 20 g/ha): 80%
Post-emergence action against SETVI (Setaria viridis; 80 g/ha): 90%
Post-emergence action against LOLRI (Lolium rigidum [5]): 90%
Post-emergence action against ALOMY (Alopecurus myosuroides [7]; 20 g/ha): 90%
Post-emergence action against ALOMY (Alopecurus myosuroides [7]; 80 g/ha): 100%

CCOC(=O)OC1=C(c2c(C)cc(C)cc2OC)C(=O)NC12COC1(CCOCC1)OC2 [Example 4-1]
Post-emergence action against DIGSA (Digitaria sanguinalis; 20 g/ha): 90%
Post-emergence action against DIGSA (Digitaria sanguinalis; 80 g/ha): 90%
Post-emergence action against AVEFA (Avena fatua [8]): 100%
Post-emergence action against ECHCG (Echinochloa crus-galli [3]; 80 g/ha): 100%
Post-emergence action against SETVI (Setaria viridis; 20 g/ha): 90%
Post-emergence action against SETVI (Setaria viridis; 80 g/ha): 100%
Post-emergence action against LOLRI (Lolium rigidum [5]): 100%
Post-emergence action against ALOMY (Alopecurus myosuroides [7]; 20 g/ha): 100%
Post-emergence action against ALOMY (Alopecurus myosuroides [7]; 80 g/ha): 100%
Post-emergence action against HORMU (Hordeum murinum): 100%

CCC(=O)OC1=C(c2c(C)cc(Cl)cc2OC)C(=O)NC12COC1(CCOCC1)OC2 [Example 3-4, 3-(4-chloro-2-methoxy-6-methylphenyl)-2-oxo-7,11,14-trioxa-1-azadispiro[4.2.5^8.2^5]pentadec-3-en-4-yl propionate]
Post-emergence action against DIGSA (Digitaria sanguinalis; 20 g/ha): 100%
Post-emergence action against DIGSA (Digitaria sanguinalis; 80 g/ha): 100%
Post-emergence action against AVEFA (Avena fatua [8]): 100%
Post-emergence action against ECHCG (Echinochloa crus-galli [3]; 80 g/ha): 100%
Post-emergence action against SETVI (Setaria viridis; 20 g/ha): 80%
Post-emergence action against SETVI (Setaria viridis; 80 g/ha): 90%
Post-emergence action against LOLRI (Lolium rigidum [5]): 100%
Post-emergence action against ALOMY (Alopecurus myosuroides [7]; 20 g/ha): 90%
Post-emergence action against ALOMY (Alopecurus myosuroides [7]; 80 g/ha): 100%

COc1cc(Cl)cc(C)c1C1=C(O)C2(COC3(CCOCC3)OC2)NC1=O [Example 1-4, 3-(4-chloro-2-methoxy-6-methylphenyl)-4-hydroxy-7,11,14-trioxa-1-azadispiro[4.2.5^8.2^5]pentadec-3-en-2-one]
Post-emergence action against DIGSA (Digitaria sanguinalis; 20 g/ha): 80%
Post-emergence action against DIGSA (Digitaria sanguinalis; 80 g/ha): 80%
Post-emergence action against AVEFA (Avena fatua [8]): 100%
Post-emergence action against ECHCG (Echinochloa crus-galli [3]; 80 g/ha): 80%
Post-emergence action against SETVI (Setaria viridis; 20 g/ha): 80%
Post-emergence action against SETVI (Setaria viridis; 80 g/ha): 90%
Post-emergence action against LOLRI (Lolium rigidum [5]): 100%
Post-emergence action against ALOMY (Alopecurus myosuroides [7]; 20 g/ha): 90%
Post-emergence action against ALOMY (Alopecurus myosuroides [7]; 80 g/ha): 100%

COc1cc(Cl)cc(C)c1C1=C(O)C2(COC3(CCOCC3)OC2)NC1=O [Example 2-4, sodium 3-(4-chloro-2-methoxy-6-methylphenyl)-2-oxo-7,11,14-trioxa-1-azadispiro[4.2.5^8.2^5]pentadec-3-en-4-olate]
Post-emergence action against DIGSA (Digitaria sanguinalis; 20 g/ha): 90%
Post-emergence action against DIGSA (Digitaria sanguinalis; 80 g/ha): 90%
Post-emergence action against AVEFA (Avena fatua [8]): 100%
Post-emergence action against ECHCG (Echinochloa crus-galli [3]; 80 g/ha): 80%
Post-emergence action against SETVI (Setaria viridis; 20 g/ha): 80%
Post-emergence action against SETVI (Setaria viridis; 80 g/ha): 80%
Post-emergence action against LOLRI (Lolium rigidum [5]): 90%
Post-emergence action against ALOMY (Alopecurus myosuroides [7]; 20 g/ha): 80%
Post-emergence action against ALOMY (Alopecurus myosuroides [7]; 80 g/ha): 100%

COc1cc(C)cc(C)c1C1=C(O)C2(COC3(CCOCC3)OC2)NC1=O [Example 1-1]
Post-emergence action against DIGSA (Digitaria sanguinalis; 20 g/ha): 100%
Post-emergence action against DIGSA (Digitaria sanguinalis; 80 g/ha): 100%
Post-emergence action against AVEFA (Avena fatua [8]): 100%
Post-emergence action against ECHCG (Echinochloa crus-galli [3]; 80 g/ha): 100%
Post-emergence action against SETVI (Setaria viridis; 20 g/ha): 100%
Post-emergence action against SETVI (Setaria viridis; 80 g/ha): 100%
Post-emergence action against LOLRI (Lolium rigidum [5]): 100%
Post-emergence action against ALOMY (Alopecurus myosuroides [7]; 20 g/ha): 100%
Post-emergence action against ALOMY (Alopecurus myosuroides [7]; 80 g/ha): 100%
Post-emergence action against HORMU (Hordeum murinum): 100%

CCOC(=O)OC1=C(c2c(C)cc(C)cc2OC)C(=O)N(C)C12COC1(CCOCC1)OC2 [Example 8-1]
Pre-emergence action against LOLRI (Lolium rigidum [1]; 80 g/ha): 100%
Pre-emergence action against LOLRI (Lolium rigidum [1]; 320 g/ha): 100%
Pre-emergence action against ECHCG (Echinochloa crus-galli [2]): 100%
Post-emergence action against ECHCG (Echinochloa crus-galli [3]; 20 g/ha): 80%
Post-emergence action against ECHCG (Echinochloa crus-galli [3]; 80 g/ha): 90%
Pre-emergence action against AVEFA (Avena fatua [4]): 100%
Post-emergence action against SETVI (Setaria viridis; 20 g/ha): 80%
Post-emergence action against SETVI (Setaria viridis; 80 g/ha): 100%
Post-emergence action against LOLRI (Lolium rigidum [5]): 90%
Pre-emergence action against ALOMY (Alopecurus myosuroides [6]): 100%

COc1cc(C)cc(C)c1C1=C([O-])C2(COC3(CCOCC3)OC2)NC1=O.[Na+] [Example 2-1]
Post-emergence action against DIGSA (Digitaria sanguinalis; 20 g/ha): 90%
Post-emergence action against DIGSA (Digitaria sanguinalis; 80 g/ha): 90%
Post-emergence action against AVEFA (Avena fatua [8]): 100%
Post-emergence action against ECHCG (Echinochloa crus-galli [3]; 80 g/ha): 100%
Post-emergence action against SETVI (Setaria viridis; 20 g/ha): 90%
Post-emergence action against SETVI (Setaria viridis; 80 g/ha): 90%
Post-emergence action against LOLRI (Lolium rigidum [5]): 100%
Post-emergence action against ALOMY (Alopecurus myosuroides [7]; 20 g/ha): 90%
Post-emergence action against ALOMY (Alopecurus myosuroides [7]; 80 g/ha): 100%
Post-emergence action against HORMU (Hordeum murinum): 90%

COc1cc(C)cc(C)c1C1=C(O)C2(COC3(CCOCC3)OC2)N(C)C1=O [Example 5-1]
Pre-emergence action against LOLRI (Lolium rigidum [1]; 80 g/ha): 100%
Pre-emergence action against LOLRI (Lolium rigidum [1]; 320 g/ha): 100%
Pre-emergence action against ECHCG (Echinochloa crus-galli [2]): 100%
Post-emergence action against ECHCG (Echinochloa crus-galli [3]; 20 g/ha): 100%
Post-emergence action against ECHCG (Echinochloa crus-galli [3]; 80 g/ha): 100%
Pre-emergence action against AVEFA (Avena fatua [4]): 100%
Post-emergence action against SETVI (Setaria viridis; 20 g/ha): 90%
Post-emergence action against SETVI (Setaria viridis; 80 g/ha): 90%
Post-emergence action against LOLRI (Lolium rigidum [5]): 90%
Pre-emergence action against ALOMY (Alopecurus myosuroides [6]): 90%
Post-emergence action against ALOMY (Alopecurus myosuroides [7]; 20 g/ha): 80%
Post-emergence action against ALOMY (Alopecurus myosuroides [7]; 80 g/ha): 90%

CCC(=O)OC1=C(c2c(C)cc(C)cc2OC)C(=O)NC12COC1(CCOCC1)OC2 [Example 3-1]
Post-emergence action against DIGSA (Digitaria sanguinalis; 20 g/ha): 90%
Post-emergence action against DIGSA (Digitaria sanguinalis; 80 g/ha): 100%
Post-emergence action against AVEFA (Avena fatua [8]): 90%
Post-emergence action against ECHCG (Echinochloa crus-galli [3]; 80 g/ha): 100%
Post-emergence action against SETVI (Setaria viridis; 20 g/ha): 80%
Post-emergence action against SETVI (Setaria viridis; 80 g/ha): 90%
Post-emergence action against LOLRI (Lolium rigidum [5]): 100%
Post-emergence action against ALOMY (Alopecurus myosuroides [7]; 20 g/ha): 90%
Post-emergence action against ALOMY (Alopecurus myosuroides [7]; 80 g/ha): 100%
Post-emergence action against HORMU (Hordeum murinum): 90%
